Experimental data: US9534010B2, “Stable indole-3-propionate salts of S-adenosyl-L-methionine” (HEBERT SAM-E LLC, priority 2013, dated 2017)

What was measured:
[1] = system: alcoholic liver cirrhosis; conditions: oral SAMe, compared with a placebo treated group; cited from earlier work
[2] = system: Caco-2 cells; assay: In vitro Caco-2 permeability assay (apical to basolateral); conditions: for mean A->B Papp: analyte SAMe, test compound 2 mM, A side pH 6.5, B side pH 7.4, 2 hours
Description: The following in vitro permeability assay was conducted to determine the efficacy of certain absorption enhancers in increasing the permeability of a IPA salt of SAMe, or a pharmaceutically acceptable salt thereof, of the invention. See Stewart, B H, et al. (1995) “Comparison of intestinal permeabilities determined in multiple in vitro and in situ models: Relationship to absorption in humans,” Pharm. Res. 12:693.
The test compound was the IPA salt of SAMe 1,4-butanedisulfonate (the product of Synthetic Example 2) (SAMeIPA). The concentration of the test compound used in the assay was 2 mM.
The signal was optimized for each test formulation by ESI positive or negative ionization mode. An MS2 scan or a SIM scan was used to optimize the fragmenter voltage and a product ion analysis was used to identify the best fragment for analysis, and the collision energy was optimized using a product ion or MRM scan. An ionization ranking was assigned indicating the formulation's ease of ionization.
Samples were analyzed by LC/MS/MS using an Agilent 6410 mass spectrometer coupled with an Agilent 1200 HPLC and a CTC PAL chilled autosampler, all controlled by MassHunter software (Agilent). After separation on a C18 reverse phase HPLC column (Agilent, Waters, or equivalent) using an acetonitrile-water gradient system, peaks were analyzed by mass spectrometry (MS) using ESI ionization in MRM mode.
The permeability of SAMe and IPA were measured independently. […]
For Apical to Basolateral (A->B) permeability, the test formulation was added to the apical (A) side and amount of permeation is determined on the basolateral (B) side; for Basolateral to Apical (B>A) permeability, the test formulation was added to the B side and the amount of permeation was determined on the A side. […]
To verify the Caco-2 cell monolayers were properly formed, aliquots of the cell buffers were analyzed by fluorescence to determine the transport of the impermeable dye Lucifer Yellow.
Data was expressed as apparent permeability (Papp). […]

[3] = Storage stability at room temperature, checked by UV absorption spectra and HPLC; assay type: physicochemical; conditions: for maximum absorption peak at 420 nm (toxic degradation products of incorporated IPA): UV absorption spectra, initial and after eight months at room temperature; for SAMe degradation products by HPLC or UV absorption spectra: stored for eight months at room temperature
Description: Stability of the IPA salt can be assessed by the method disclosed in Bottiglieri, T. (1990), Biomed Chromatogr, 4(6):239-41.
Ultraviolet-visible light absorption spectra were obtained for the product of Synthetic Example 1 and the product of Synthetic Example 2 (see FIG. 1 and FIG. 2, respectively). An ultraviolet-visible light absorption spectrum was also obtained at the same time for a blank sample (see FIG. 5) for control purposes.
The product of Synthetic Example 1 and the product of Synthetic Example 2 were then stored for eight months at room temperature, after which ultraviolet-visible light absorption spectra were obtained for the stored products (see […] and FIG. 4). An ultraviolet-visible light absorption spectrum was also obtained at the same time for a blank sample (see FIG. 6) for control purposes.
This is in stark contrast to the unstable nature of, for example, previously known salts of SAMe, such as the tosylate or 1,4-butanedisulfonate salts, the stability of which can be determined in the same manner as described herein.

Row | Molecule | overall mortality and/or progression to liver transplant [1] [%] | mean A->B Papp [2] | mean A->B Papp ([2]; listed as S-adenosyl-L-methionine 1,4-butanedisulfonate indole-3-propionate salt) | fold increase in S-adenosyl-L-methionine permeability ([2]; using trimethyl chitosan homopolymer as the absorption enhancer) [fold] | maximum absorption peak at 420 nm (toxic degradation products of incorporated IPA) [3] | SAMe degradation products by HPLC or UV absorption spectra [3]
1 | C[S+](CC[C@H](N)C(=O)O)C[C@H]1O[C@@H](n2cnc3c(N)ncnc32)[C@H](O)[C@@H]1O (stereo partly drawn) [SAMe, S-adenosyl-L-methionine] | 12 | – | – | – | – | –
2 | S-Adenosyl-L-methionine 1,4-butanedisulfonate indole-3-propionate [SAMeIPA] | – | 0.20 | low | 37.5 | no maximum absorption peaks at 420 nm were noted | No SAMe degradation products were detected
3 | S-Adenosyl-L-methionine p-toluenesulfonate indole-3-propionate [Synthetic Example 1] | – | – | – | – | no maximum absorption peaks at 420 nm were noted | No SAMe degradation products were detected
